Patent US20220177428A1, “SPECIFICALLY SUBSTITUTED 3-(2-ALKOXY-6-ALKYL-4-PROPINYLPHENYL)-3-PYRROLIN-2-ONES AND THEIR USE AS HERBICIDES” (Bayer Aktiengesellschaft, priority 2019, published 2022)

Key:
Format in all cases: in vivo
Hordeum murinum = experiment: Post-emergence herbicidal effect; details: 80 g ai/ha, visual score after about 3 weeks
Method: (§1) [table] Seeds of monocotyledonous and dicotyledonous weed and crop plants are laid out in sandy loam soil in wood-fibre pots, covered with soil and cultivated in a greenhouse under good growth conditions. 2 to 3 weeks after sowing, the test plants are treated at the one-leaf stage. The compounds of the invention, formulated in the form of wettable powders (WP) or as emulsion concentrates (EC), are then sprayed onto the green parts of the plants as aqueous suspension or emulsion at a water application rate equating to 600 to 800 L/ha with addition of 0.2% wetting agent. After the test plants have been left to stand in the greenhouse under optimal growth conditions for about 3 weeks, the action of the preparations is assessed visually in comparison to untreated controls (herbicidal action in percent (%): 100% activity=the plants have died, 0% activity=like control plants).

Setaria viridis [1] = experiment: Post-emergence herbicidal effect; details: 80 g ai/ha, visual score after about 3 weeks
Method: as §1

Echinochloa crus-galli [2] = experiment: Post-emergence herbicidal effect; details: 80 g ai/ha, visual score after about 3 weeks
Method: as §1

Alopecurus myosuroides [3] = experiment: Post-emergence herbicidal effect; details: 80 g ai/ha, visual score after about 3 weeks
Method: as §1

Avena fatua [4] = experiment: Post-emergence herbicidal effect; details: 80 g ai/ha, visual score after about 3 weeks
Method: as §1

Digitaria sanguinalis [5] = experiment: Post-emergence herbicidal effect; details: 80 g ai/ha, visual score after about 3 weeks
Method: as §1

Lolium rigidum [6] = experiment: Post-emergence herbicidal effect; details: 80 g ai/ha, visual score after about 3 weeks
Method: as §1

Abutylon threophrasti = experiment: Pre-emergence herbicidal effect; details: 320 g ai/ha, visual score after 3 weeks
Source text: (§2) Seeds of monocotyledonous and dicotyledonous weed plants and crop plants are laid out in sandy loam soil in wood-fibre pots and covered with soil. The compounds of the invention, formulated in the form of wettable powders (WP) or as emulsion concentrates (EC), are then applied to the surface of the covering soil as aqueous suspension or emulsion at a water application rate equating to 600 to 800 L/ha with addition of 0.2% wetting agent. After the treatment, the pots are placed in a greenhouse and kept under good growth conditions for the trial plants. The damage to the test plants is scored visually after a test period of 3 weeks by comparison with untreated controls (herbicidal activity in percent (%): 100% activity=the plants have died, 0% activity=like control plants). [table]

Setaria viridis [7] = experiment: Pre-emergence herbicidal effect; details: visual score after 3 weeks
Source text: as §2

Amaranthus retroflexus = experiment: Pre-emergence herbicidal effect; details: 320 g ai/ha, visual score after 3 weeks
Source text: as §2

Matricaria inodora = experiment: Pre-emergence herbicidal effect; details: 320 g ai/ha, visual score after 3 weeks
Source text: as §2

Echinochloa crus-galli [8] = experiment: Pre-emergence herbicidal effect; details: visual score after 3 weeks
Source text: as §2

Alopecurus myosuroides [9] = experiment: Pre-emergence herbicidal effect; details: visual score after 3 weeks
Source text: as §2

Avena fatua [10] = experiment: Pre-emergence herbicidal effect; details: visual score after 3 weeks
Source text: as §2

Viola tricolor = experiment: Pre-emergence herbicidal effect; details: visual score after 3 weeks
Source text: as §2

Veronica persica = experiment: Pre-emergence herbicidal effect; details: 320 g ai/ha, visual score after 3 weeks
Source text: as §2

Digitaria sanguinalis [11] = experiment: Pre-emergence herbicidal effect; details: visual score after 3 weeks
Source text: as §2

Lolium rigidum [12] = experiment: Pre-emergence herbicidal effect; details: visual score after 3 weeks
Source text: as §2

| SMILES | Post-emergence activity HORMU (Hordeum murinum) [%] | Post-emergence activity SETVI (Setaria viridis [1]) [%] | Post-emergence activity ECHCG (Echinochloa crus-galli [2]) [%] | Post-emergence activity ALOMY (Alopecurus myosuroides [3]) [%] | Post-emergence activity AVEFA (Avena fatua [4]) [%] | Post-emergence activity DIGSA (Digitaria sanguinalis [5]) [%] | Post-emergence activity LOLRI (Lolium rigidum [6]) [%] | Pre-emergence activity SETVI (Setaria viridis [7]; 80 g ai/ha) [%] | Pre-emergence activity ECHCG (Echinochloa crus-galli [8]; 80 g ai/ha) [%] | Pre-emergence activity ALOMY (Alopecurus myosuroides [9]; 80 g ai/ha) [%] | Pre-emergence activity VIOTR (Viola tricolor; 80 g ai/ha) [%] | Pre-emergence activity DIGSA (Digitaria sanguinalis [11]; 80 g ai/ha) [%] | Pre-emergence activity LOLRI (Lolium rigidum [12]; 80 g ai/ha) [%] | Pre-emergence activity AVEFA (Avena fatua [10]; 80 g ai/ha) [%] | further results |
| --- | --- | --- | --- | --- | --- | --- | --- | --- | --- | --- | --- | --- | --- | --- | --- |
| CC#Cc1cc(C)c(C2=C(O)C3(CCCC(OCCC)C3)NC2=O)c(OC)c1 (centres unmarked) [Example D1, 4-Hydroxy-3-[2-methoxy-6-methyl-4-(prop-1-yn-1-yl)phenyl]-7-propoxy-1-azaspiro[4.5]dec-3-en-2-one] | 100 | 100 | 100 | 100 | 100 | 100 | 100 | – | – | – | – | – | – | – | – |
| CC#Cc1cc(C)c(C2=C(O)C3(CCC(OCCC)CC3)NC2=O)c(OC)c1 (centres unmarked) [Example D2] | – | 100 | 100 | 100 | 100 | 100 | 100 | 100 | 80 | 80 | 100 | 100 | 90 | – | Pre-emergence activity ABUTH (Abutylon threophrasti): 100%; Pre-emergence activity SETVI (Setaria viridis [7]; 320 g ai/ha): 100%; Pre-emergence activity AMARE (Amaranthus retroflexus): 100%; Pre-emergence activity MATIN (Matricaria inodora): 100%; Pre-emergence activity ECHCG (Echinochloa crus-galli [8]; 320 g ai/ha): 100%; Pre-emergence activity ALOMY (Alopecurus myosuroides [9]; 320 g ai/ha): 100%; Pre-emergence activity AVEFA (Avena fatua [10]; 320 g ai/ha): 100%; Pre-emergence activity VIOTR (Viola tricolor; 320 g ai/ha): 100%; Pre-emergence activity VERPE (Veronica persica): 80%; Pre-emergence activity DIGSA (Digitaria sanguinalis [11]; 320 g ai/ha): 100%; Pre-emergence activity LOLRI (Lolium rigidum [12]; 320 g ai/ha): 100% |
| CC#Cc1cc(C)c(C2=C(O)C3(CCC(OC(C)C)CC3)NC2=O)c(OC)c1 (centres unmarked) [Example D3] | 80 | 100 | 100 | 100 | 100 | 100 | 100 | 100 | 100 | 100 | 100 | 100 | 100 | 80 | – |
| C=CCOC1CCC2(CC1)NC(=O)C(c1c(C)cc(C#CC)cc1OC)=C2O (centres unmarked) [Example D5] | 100 | 100 | 100 | 100 | 100 | 100 | 100 | – | – | – | – | – | – | – | – |
| CC#Cc1cc(C)c(C2=C(O)C3(CCC(COC)CC3)NC2=O)c(OC)c1 (centres unmarked) [Example D6] | – | 100 | 100 | 100 | 100 | 100 | 100 | 100 | – | 80 | – | 100 | 100 | 80 | Pre-emergence activity ABUTH (Abutylon threophrasti): 100%; Pre-emergence activity SETVI (Setaria viridis [7]; 320 g ai/ha): 100%; Pre-emergence activity AMARE (Amaranthus retroflexus): 100%; Pre-emergence activity MATIN (Matricaria inodora): 90%; Pre-emergence activity ECHCG (Echinochloa crus-galli [8]; 320 g ai/ha): 100%; Pre-emergence activity ALOMY (Alopecurus myosuroides [9]; 320 g ai/ha): 100%; Pre-emergence activity AVEFA (Avena fatua [10]; 320 g ai/ha): 100%; Pre-emergence activity VIOTR (Viola tricolor; 320 g ai/ha): 100%; Pre-emergence activity VERPE (Veronica persica): 100%; Pre-emergence activity DIGSA (Digitaria sanguinalis [11]; 320 g ai/ha): 100%; Pre-emergence activity LOLRI (Lolium rigidum [12]; 320 g ai/ha): 100% |
| CC#Cc1cc(C)c(C2=C(OC(=O)OC)C3(CCCC(OCCC)C3)NC2=O)c(OC)c1 (centres unmarked) [Example P2] | 100 | 100 | 100 | 100 | 100 | 100 | 100 | – | – | – | – | – | – | – | – |
| CC#Cc1cc(C)c(C2=C(OC(=O)OCC)C3(CCCC(OCCC)C3)NC2=O)c(OC)c1 (centres unmarked) [Example P3] | 100 | 100 | 100 | 100 | 100 | 100 | 100 | – | – | – | – | – | – | – | – |
| CC#Cc1cc(C)c(C2=C(OC(=O)C(C)C)C3(CCCC(OCCC)C3)NC2=O)c(OC)c1 (centres unmarked) [Example P4] | 100 | 100 | 100 | 100 | 100 | 90 | 100 | – | – | – | – | – | – | – | – |
| CC#Cc1cc(C)c(C2=C(OC(=O)CC)C3(CCCC(OCCC)C3)NC2=O)c(OC)c1 (centres unmarked) [Example P5] | 100 | 100 | 100 | 100 | 100 | 100 | 100 | – | – | – | – | – | – | – | – |
| CC#Cc1cc(C)c(C2=C(OC(=O)OCC)C3(CCC(OCCC)CC3)NC2=O)c(OC)c1 (centres unmarked) [Example Q2] | – | 100 | 100 | 100 | 90 | 100 | 100 | 100 | 100 | 100 | 100 | 100 | 100 | 80 | Pre-emergence activity ABUTH (Abutylon threophrasti): 90%; Pre-emergence activity SETVI (Setaria viridis [7]; 320 g ai/ha): 100%; Pre-emergence activity AMARE (Amaranthus retroflexus): 100%; Pre-emergence activity MATIN (Matricaria inodora): 100%; Pre-emergence activity ECHCG (Echinochloa crus-galli [8]; 320 g ai/ha): 100%; Pre-emergence activity ALOMY (Alopecurus myosuroides [9]; 320 g ai/ha): 100%; Pre-emergence activity AVEFA (Avena fatua [10]; 320 g ai/ha): 100%; Pre-emergence activity VIOTR (Viola tricolor; 320 g ai/ha): 100%; Pre-emergence activity VERPE (Veronica persica): 90%; Pre-emergence activity DIGSA (Digitaria sanguinalis [11]; 320 g ai/ha): 100%; Pre-emergence activity LOLRI (Lolium rigidum [12]; 320 g ai/ha): 100% |
| C=CCOC1CCC2(CC1)NC(=O)C(c1c(C)cc(C#CC)cc1OC)=C2OC(=O)OC (centres unmarked) [Example Q3] | 100 | 100 | 100 | 100 | 80 | 90 | 100 | – | – | – | – | – | – | – | – |
| C=CCOC1CCC2(CC1)NC(=O)C(c1c(C)cc(C#CC)cc1OC)=C2OC(=O)OCC (centres unmarked) [Example Q4] | 100 | 100 | 100 | 100 | 90 | 100 | 100 | 100 | 100 | 100 | 100 | 100 | 100 | 90 | – |
| C=CCOC1CCC2(CC1)NC(=O)C(c1c(C)cc(C#CC)cc1OC)=C2OC(=O)C(C)C (centres unmarked) [Example Q5] | 90 | 100 | 100 | 100 | – | 100 | 100 | – | – | – | – | – | – | – | – |
